Laboratory results as given in US7879870B2, “Treatment of inflammatory and ulcerative diseases of the bowel with opioid antagonists” (priority 2006, dated 2011).
“Also recorded” adds a separate entry of the source.

What was measured:
[1] = higher doses, i.e. 50 mg; cited from earlier work
[2] = system: DSS-induced colitis in mice; assay: DSS-induced colitis in mice: weight, food and water intake, modified DAI, colon length; type: in vivo, mouse
From the text: Six to eight-week-old male C57 black/6J mice (Charles River Laboratories, Inc., Wilmington, Mass.) were randomly allocated into one of two groups of 24 mice each. Food and water were provided ad libitum. The first group (Normal) received normal drinking water and the second group (DSS) received water containing 2% dextran sulfate sodium having a molecular weight of 40,000 (TdB Consultancy AB, Uppsala, Sweden) for six days followed by normal water for three additional days and necropsy on day 9 (FIG. 5A). Each mouse was housed in an individual cage for accurate measurement of food and water intake. Animal weight, water intake, and food consumption were measured daily. Bedding was changed and fresh stool pellets were collected daily and analyzed for occult blood. The colitis disease activity index (DAI) was calculated for each mouse according to the system established by Murthy and colleagues. See, Murthy, et al., “Treatment of dextran sulfate sodium-induced murine colitis by intracolonic cyclosporin,” Dig. Dis. Sci. 38, 1722-34 (1993). Overt changes in stool consistency were rarely discerned so a modified DAI was calculated based on percent weight loss and stool hemoccult or presence of gross bleeding.
(§1) Mice in each group (Normal or DSS) were randomly subdivided into three treatment groups of eight mice each. After 72 hours, mice were treated once daily for six consecutive days with a subcutaneous injection (0.1 mL) of one of the following: saline (control), 6.3 μg/kg naltrexone (“NTX”), or 350 μg/kg NTX (Sigma Chemicals, St. Louis, Mo.). On day 9, all animals were necropsied and their colons resected.
(§2) At necropsy, the entire colon was excised, measured in length, and bisected into proximal and distal portions. The proximal and distal colons were additionally divided for RNA extraction and histology. Each histology specimen was fixed in 10% neutral buffered formalin, paraffin embedded and sectioned for hematoxylin and eosin (“H&E”) staining. Specimens were examined microscopically and scored based upon the criteria established by Williams et al. by an investigator blinded to the treatment groups. Williams, et al., “Enhanced survival and mucosal repair after dextran sodium sulfate-induced colitis in transgenic mice that overexpress growth hormone,” Gastroenterology 120, 925-37 (2001). Briefly, a representative longitudinal section from each mouse was scored at six random fields for inflammation severity, extent of inflammation (mucosa, submucosa, transmural) and crypt damage. Each of these scores was weighted to reflect the percent involvement of the overall section and the weighted scores from each of the six fields were averaged to achieve an overall inflammation score for each mouse.
(§3) Results were calculated as mean±SEM. Statistical comparisons were performed between NTX treatment sub-groups and their corresponding saline control, as well as between the Normal and DSS groups, comparing corresponding treatments. Parametric analyses were performed (Minitab 13, State College, Pa.) using a modified Bonferroni method to correct for multiple comparisons to controls.

[3] = system: DSS-induced colitis in mice; assay: DSS-induced colitis in mice: histological inflammation score of distal colon (H&E); type: in vivo, mouse
Method: as §1, §2, §3

[4] = system: mucin (Muc2), trefoil factor (TFF3), TGF-beta binding protein mRNA; assay: Distal colon RNA of DSS mice, microarray and quantitative RT-PCR; type: in vivo, mouse
From the text: (§4) Total RNA was extracted from the distal colon samples (using TRIZOL® available from Invitrogen Corp., Carlsbad, Calif.; TRIZOL® is a trademark of Molecular Research Center, Inc. of Cincinnati, Ohio) and subjected to microarray analysis using a 10K mouse microarray (MWG Biotech, High Point, N.C.) and a Packard Biosciences ScanArray 4000KL machine (Functional Genomics Core Facility of the Section of Research Resources, Penn State College of Medicine). To minimize the impact of variation among animals, RNA from individual mice was pooled within each treatment group. […] RNA from Normal+saline, DSS+6.3 μg/kg NTX, and DSS+350 μg/kg NTX were each tested versus DSS+saline. Data were analyzed with GenSpring 6 software (Agilent Technologies, Palo Alto, Calif.).
RNA (18S and 28S bands) was visualized using the Agilent 2100 Bioanalyzer (Agilent Technologies, Santa Clara, Calif.) and concentrations were adjusted. […] The concentration and quality of resulting cDNA was quantified and analyzed using the Agilent 2100 Bioanalyzer or spectroscopically with the NanoDrop ND-1000 (NanoDrop Technologies, Wilmington, Del.). […] PCR amplification and analysis were performed with the Applied Biosystems Sequence Detection System 7300 using the Relative Quantification (ddCt). […]

IL-5 mRNA = assay: Distal colon RNA of DSS mice, real-time RT-PCR; type: in vivo, mouse; conditions: DSS+NTX
From the text: as §4
(§5) RNA (18S and 28S bands) was visualized using the Agilent 2100 Bioanalyzer (Agilent Technologies, Santa Clara, Calif.) and concentrations were adjusted. First strand cDNA was then produced from 1.0 μg of total RNA using random hexamer primers and the SuperScript III Reverse Transcription kit (Invitrogen). The concentration and quality of resulting cDNA was quantified and analyzed using the Agilent 2100 Bioanalyzer or spectroscopically with the NanoDrop ND-1000 (NanoDrop Technologies, Wilmington, Del.). Samples were standardized to 30 ng/μL and 60 ng of cDNA per sample was then used as a template for real-time PCR using a SYBR Green Master Mix (Qiagen, Valencia, Calif.). 18S rRNA primers (Eurogentec, San Diego, Calif.) and the following gene-specific primer sequences obtained from PrimerBank (pga.mgh.harvard.edu/primerbank) were used: beta-actin, 6671509a; IL-5, 6754336a; IL-6, 13642311a; IL-12, 6680395a; STAT3, 13277852a; STAT4, 6755670a; Muc2, 3452503a2; TFF3, 6755773a1; Palladin, 9828173a1; and TGF-beta BP, 7305243a1. To exclude the possibility of genomic DNA contamination, control reactions with no cDNA template were also performed for each gene-specific primer set. PCR amplification and analysis were performed with the Applied Biosystems Sequence Detection System 7300 using the Relative Quantification (ddCt). Amplification data for the genes of interest were normalized to 18S within each individual reaction. Triplicate reactions were performed and the resultant data from multiple runs were averaged.

STAT4 mRNA = assay: Distal colon RNA of DSS mice, real-time RT-PCR; type: in vivo, mouse
From the text: as §4, §5

STAT3 mRNA = assay: Distal colon RNA of DSS mice, real-time RT-PCR; type: in vivo, mouse
From the text: as §4, §5

beta-actin mRNA = assay: Distal colon RNA of DSS mice, real-time RT-PCR; type: in vivo, mouse; conditions: DSS+NTX
From the text: as §4, §5

IL-6 mRNA = assay: Distal colon RNA of DSS mice, real-time RT-PCR; type: in vivo, mouse; conditions: DSS mice treated with naltrexone
From the text: as §4, §5

IL-12 mRNA = assay: Distal colon RNA of DSS mice, real-time RT-PCR; type: in vivo, mouse; conditions: DSS mice treated with naltrexone
From the text: as §4, §5

[5] = DSS mice treated with naltrexone

**Q.** Which Liver transaminases [1] does the source give for `O=C1CC[C@@]2(O)[C@H]3Cc4ccc(O)c5c4[C@@]2(CCN3CC2CC2)[C@H]1O5` [naltrexone] here?
**A.** elevate liver transaminases

**Q.** What about the Colon length ([2]; DSS mice treated with naltrexone, still shorter than in untreated animals) of the same compound?
**A.** more normal colon lengths

**Q.** And the “DAI scores / disease symptoms compared to DSS+saline (in words)” value ([2]; DSS mice, 350 μg/kg)?
**A.** lower DAI scores; also recorded: decreased

**Q.** What about the “Weight loss compared to DSS mice treated with saline” value ([2]; DSS mice, 350 μg/kg) of the same compound?
**A.** less weight loss; also recorded: decreased

**Q.** And the “Weight loss compared to DSS+saline” value ([2]; DSS mice, naltrexone s.c. once daily from 72 hours)?
**A.** tended to be less

**Q.** And the “DAI scores of DSS mice (in words)” value ([2]; DSS mice, naltrexone treatment)?
**A.** A reduction in these DAI scores was evident

**Q.** And the “Weight loss compared to DSS+saline, statistical significance” value ([2]; DSS+6.3 μg/kg NTX, p=0.02)?
**A.** only reached statistical significance on day 6

**Q.** What about the “Modified DAI scores” value ([2]; Normal mice (no DSS), NTX-treated) of the same compound?
**A.** no evidence of colitis

**Q.** And the “DAI scores lower than DSS+saline mice” value ([2]; day 6, DSS+350 μg/kg NTX, p=0.015)?
**A.** 55%

**Q.** What about the “Weight at necropsy among the three DSS sub-groups” value ([2]; day 9, off DSS for three days) of the same compound?
**A.** no significant difference in weight

**Q.** What about the Food consumption ([2]; naltrexone treatment alone (Normal mice, no DSS)) of the same compound?
**A.** no effect on food consumption

**Q.** And the “Inflammation by histology compared to DSS+saline (in words)” value ([3]; DSS mice, 350 μg/kg)?
**A.** less inflammation; also recorded: improved

**Q.** And the “Crypt architecture and invading leukocytes compared to DSS+saline” value ([3]; DSS+350 μg/kg NTX)?
**A.** improved crypt architecture and fewer invading leukocytes

**Q.** And the “Inflammation scores of distal colon compared to DSS+saline” value ([3]; DSS+NTX 6.3 and 350 μg/kg, trend did not reach statistical significance)?
**A.** dose-dependent decrease in inflammation and damage

**Q.** And the “Colonic inflammation, histology, Normal+saline versus Normal+NTX” value ([3]; Normal mice (no DSS))?
**A.** No differences in colonic inflammation

**Q.** What about the “Mucosal integrity of the colon” value ([3]; naltrexone alone (no DSS)) of the same compound?
**A.** did not alter the mucosal integrity of the colon

**Q.** What about the “Levels of Muc2, TFF3 and TGF-beta binding protein mRNAs, microarray” value ([4]; DSS animals, either 6.3 or 350 μg/kg) of the same compound?
**A.** restored the levels of these mRNAs in DSS animals to varying extents

**Q.** And the “Levels of Muc2, TFF3 and TGF-beta binding protein mRNAs, quantitative RT-PCR, versus Normal animals” value ([4]; DSS+NTX animals)?
**A.** not significantly different from Normal animals

**Q.** And the “Expression of IL-5” value (IL-5 mRNA)?
**A.** not significantly changed

**Q.** And the “STAT4 mRNA level versus Normal mice” value (STAT4 mRNA; [5])?
**A.** still slightly higher than in the Normal mice

**Q.** What about the “STAT4 mRNA level, decrease after naltrexone treatment” value (STAT4 mRNA; DSS mice, DSS+saline increased 8.03-fold) of the same compound?
**A.** greater than 50%

**Q.** What about the “DSS-induced up-regulation of STAT4 expression (in words)” value (STAT4 mRNA; DSS-treated mice) of the same compound?
**A.** reversed

**Q.** What about the “STAT3 mRNA level versus colitis-free Normal controls” value (STAT3 mRNA; [5]) of the same compound?
**A.** statistically indistinguishable from colitis-free, Normal controls

**Q.** What about the “STAT3 mRNA level, decrease after naltrexone treatment” value (STAT3 mRNA; DSS mice, DSS+saline increased 2.20-fold) of the same compound?
**A.** greater than 50%

**Q.** What about the “DSS-induced up-regulation of STAT3 expression (in words)” value (STAT3 mRNA; DSS-treated mice) of the same compound?
**A.** reversed

**Q.** And the Expression of beta-actin (beta-actin mRNA)?
**A.** not significantly changed

**Q.** And the “IL-6 mRNA level versus colitis-free mice” value (IL-6 mRNA)?
**A.** decreased to levels near or equal to that in mice without colitis; also recorded: not completely restored to those seen in the colitis-free animals

**Q.** What about the “IL-6 mRNA level versus DSS+saline” value (IL-6 mRNA; DSS+saline increased 73-fold) of the same compound?
**A.** greatly reduced

**Q.** And the “IL-12 mRNA level versus colitis-free mice” value (IL-12 mRNA)?
**A.** decreased to levels near or equal to that in mice without colitis; also recorded: restored mRNA expression to that seen in the colitis-free, Normal mice

**Q.** What about the “IL-12 mRNA level versus DSS+saline” value (IL-12 mRNA; DSS+saline increased three-fold) of the same compound?
**A.** greatly reduced
